Results from patent US7741341B2, “Benzimidazole-derivatives as factor Xa inhibitors” (sanofi-aventis Deutschland GmbH, priority 2003, dated 2010).

Biological target: T1, human factor Xa (Homo sapiens, UniProt P00742)
T1 construct: human factor Xa (Enzyme Research Laboratories, Inc; South Bend, Ind.); purchased Enzyme Research Laboratories, Inc; South Bend, Ind
Assay: Factor Xa assay (chromogenic, substrate S-2765)
Format: biochemical
Details: read-out: Ki(FXa)
Experimental: Purified enzymes were used in chromogenic assays.
The IC50 was determined by combining in appropriate wells of a Costar half-area microtiter plate 25 μl human factor Xa (Enzyme Research Laboratories, Inc.; South Bend, Ind.) in TBS-PEG; 40 μl 10% (v/v) DMSO in TBS-PEG (uninhibited control) or various concentrations of the compound to be tested diluted in 10% (v/v) DMSO in TBS-PEG; and substrate S-2765 (N(α)-benzyloxycarbonyl-D-Arg-Gly-L-Arg-p-nitroanilide; Kabi Pharmacia, Inc.; Franklin, Ohio) in TBS-PEG.
The assay was performed by pre-incubating the compound of formula I plus enzyme for 10 min. Then the assay was initiated by adding substrate to obtain a final volume of 100 μl. […] The enzyme concentration was 0.5 nM and substrate concentration was 140 μM.

T1 sequence (P00742 235-488 limits assumed): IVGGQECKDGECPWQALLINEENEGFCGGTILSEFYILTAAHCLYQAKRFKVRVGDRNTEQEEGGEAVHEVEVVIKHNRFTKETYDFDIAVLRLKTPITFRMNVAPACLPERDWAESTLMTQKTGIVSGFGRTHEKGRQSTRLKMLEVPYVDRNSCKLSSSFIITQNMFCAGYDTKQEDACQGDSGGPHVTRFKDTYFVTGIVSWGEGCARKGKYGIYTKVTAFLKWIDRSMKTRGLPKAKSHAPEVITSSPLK
T1 sequence (P00742 41-179 partner limits assumed): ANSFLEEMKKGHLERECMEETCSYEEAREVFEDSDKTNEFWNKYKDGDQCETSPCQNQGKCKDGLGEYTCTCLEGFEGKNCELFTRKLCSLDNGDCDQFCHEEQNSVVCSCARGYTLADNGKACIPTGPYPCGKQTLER

Row | Ki [nM] | SMILES
1 | 12.5 | CCOC(=O)OC(C)OC(=O)c1cccc2c1nc(C(=O)NC1CCN(C(C)C)CC1)n2CC(=O)Nc1ccc(Cl)cn1 (stereo not drawn) [Example 33, 1-[(5-Chloro-pyridin-2-ylcarbamoyl)-methyl]-2-(1-isopropyl-piperidin-4-ylcarbamoyl)-1H-benzoimidazole-4-carboxylic acid 1-ethoxycarbonyloxy-ethyl ester]
2 | 52.5 | CC(C)N1CCC(NC(=O)c2nc3cc(C(=O)N4CCCOCC4)ccc3n2CC(=O)Nc2ccc(Cl)cn2)CC1 [Example 77, 1-[(5-Chloro-pyridin-2-ylcarbamoyl)-methyl]-5-([1,4]oxazepane-4-carbonyl)-1H-benzoimidazole-2-carboxylic acid (1-isopropyl-piperidin-4-yl)-amide]
3 | 3.5 | CCOCCOc1cccc2c1nc(C(=O)NC1CCN(C(C)C)CC1)n2CC(=O)Nc1ccc(Cl)cn1 [Example 109, 1-[(5-Chloro-pyridin-2-ylcarbamoyl)-methyl]-4-(2-ethoxy-ethoxy)-1H-benzoimidazole-2-carboxylic acid (1-isopropyl-piperidin-4-yl)-amide]
4 | 4 | CC(C)N1CCC(NC(=O)c2nc3c(OCCO)cccc3n2CC(=O)Nc2ccc(Cl)cn2)CC1 [Example 110, 1-[(5-Chloro-pyridin-2-ylcarbamoyl)-methyl]-4-(2-hydroxy-ethoxy)-1H-benzoimidazole-2-carboxylic acid (1-isopropyl-piperidin-4-yl)-amide]
5 | 15 | COCCOC(=O)c1cccc2c1nc(C(=O)NC1CCN(C(C)C)CC1)n2CC(=O)Nc1ccc(Cl)cn1 [Example 70, 1-[(5-Chloro-pyridin-2-ylcarbamoyl)-methyl]-2-(1-isopropyl-piperidin-4-ylcarbamoyl)-1H-benzoimidazole-4-carboxylic acid 2-methoxy-ethyl ester]
6 | 6.5 | COCCOc1cccc2c1nc(C(=O)NC1CCN(C(C)C)CC1)n2CC(=O)Nc1ccc(Cl)cn1 [Example 108, 1-[(5-Chloro-pyridin-2-ylcarbamoyl)-methyl]-4-(2-methoxy-ethoxy)-1H-benzoimidazole-2-carboxylic acid (1-isopropyl-piperidin-4-yl)-amide]
7 | 20 | CC(C)N1CCC(NC(=O)c2nc3c(C(=O)N4CCCOCC4)scc3n2CC(=O)Nc2ccc(Cl)cn2)CC1 [Example 104, 3-[(5-Chloro-pyridin-2-ylcarbamoyl)-methyl]-6-([1,4]oxazepane-4-carbonyl)-3H-thieno[3,4-d]imidazole-2-carboxylic acid (1-isopropyl-piperidin-4-yl)-amide]
8 | 22.5 | CC(C)N1CCC(NC(=O)c2nc3cc(C(=O)O)ccc3n2CC(=O)Nc2ccc(Cl)cn2)CC1 [Example 18, 1-[(5-Chloro-pyridin-2-ylcarbamoyl)-methyl]-2-(1-isopropyl-piperidin-4-ylcarbamoyl)-1H-benzoimidazole-5-carboxylic acid]
9 | 8 | CC(C)N1CCC(NC(=O)c2nc3c(C(=O)N4CC(O)C4)cccc3n2Cc2cc(-c3ccc(Cl)s3)on2)CC1 [Example 23, 1-[5-(5-Chloro-thiophen-2-yl)-isoxazol-3-ylmethyl]-4-(3-hydroxy-azetidine-1-carbonyl)-1H-benzoimidazole-2-carboxylic acid (1-isopropyl-piperidin-4-yl)-amide]
10 | 12.5 | COCCOCc1cccc2c1nc(C(=O)NC1CCN(C(C)C)CC1)n2CC(=O)Nc1ccc(Cl)cn1 [Example 72, 1-[(5-Chloro-pyridin-2-ylcarbamoyl)-methyl]-4-(2-methoxy-ethoxymethyl)-1H-benzoimidazole-2-carboxylic acid (1-isopropyl-piperidin-4-yl)-amide]
11 | 2.5 | CC(C)N1CCC(NC(=O)c2nc3c(C(=O)NCCO)scc3n2Cc2cc(-c3ccc(Cl)s3)on2)CC1 [Example 102, 3-[5-(5-Chloro-thiophen-2-yl)-isoxazol-3-ylmethyl]-3H-thieno[3,4-d]imidazole-2,6-dicarboxylic acid 6-[(2-hydroxy-ethyl)-amide]2-[(1-isopropyl-piperidin-4-yl)-amide]]
12 | 8.5 | CC(C)N1CCC(NC(=O)c2nc3c(C(=O)N4CCC(F)(F)CC4)cccc3n2CC(=O)Nc2ccc(Cl)cn2)CC1 [Example 76, 1-[(5-Chloro-pyridin-2-ylcarbamoyl)-methyl]-4-(4,4-difluoro-piperidine-1-carbonyl)-1H-benzoimidazole-2-carboxylic acid (1-isopropyl-piperidin-4-yl)-amide]

More lines, now with the values behind:

Row | SMILES | Ki [nM]
13 | COC1CN(C(=O)c2cccc3c2nc(C(=O)NC2CCN(C(C)C)CC2)n3Cc2cc(-c3ccc(Cl)s3)on2)C1 [Example 80, 1-[5-(5-Chloro-thiophen-2-yl)-isoxazol-3-ylmethyl]-4-(3-methoxy-azetidine-1-carbonyl)-1H-benzoimidazole-2-carboxylic acid (1-isopropyl-piperidin-4-yl)-amide] | 7
14 | CC(C)N1CCC(NC(=O)c2nc3ccc(C(=O)OCCO)cc3n2Cc2cc(-c3ccc(Cl)s3)on2)CC1 [Example 65, 3-[5-(5-Chloro-thiophen-2-yl)-isoxazol-3-ylmethyl]-2-(1-isopropyl-piperidin-4-ylcarbamoyl)-3H-benzoimidazole-5-carboxylic acid 2-hydroxy-ethyl ester] | 121
15 | O=C(Cn1c(C(=O)Nc2ccc(N3CCNCC3=O)cc2)nc2ccccc21)Nc1ccc(Cl)cn1 [Example 51, 1-[(5-Chloro-pyridin-2-ylcarbamoyl)-methyl]-1H-benzoimidazole-2-carboxylic acid [4-(2-oxo-piperazin-1-yl)-phenyl]-amide] | 510
16 | CC(C)N1CCC(NC(=O)c2nc3c(C(=O)N(C)CCO)cccc3n2Cc2cc(-c3ccc(Cl)s3)on2)CC1 [Example 24, 1-[5-(5-Chloro-thiophen-2-yl)-isoxazol-3-ylmethyl]-1H-benzoimidazole-2,4-dicarboxylic acid 4-[(2-hydroxy-ethyl)-methyl-amide] 2-[(1-isopropyl-piperidin-4-yl)-amide]] | 26
17 | CC(C)N1CCC(NC(=O)c2nc3cccnc3n2Cc2cc(-c3ccc(Cl)s3)on2)CC1 [Example 14, 3-[5-(5-Chloro-thiophen-2-yl)-isoxazol-3-ylmethyl]-3H-imidazo[4,5-b]pyridine-2-carboxylic acid (1-isopropyl-piperidin-4-yl)-amide] | 2390
18 | CC(C)N1CCC(NC(=O)c2nc3cccc(C(=O)O)c3n2Cc2cc(-c3ccc(Cl)s3)on2)CC1 [Example 13, 3-[5-(5-Chloro-thiophen-2-yl)-isoxazol-3-ylmethyl]-2-(1-isopropyl-piperidin-4-ylcarbamoyl)-3H-benzoimidazole-4-carboxylic acid] | 299
19 | O=C(NC1CCN(c2ccncn2)CC1)c1nc2ccccc2n1Cc1cc(-c2ccc(Cl)s2)on1 [Example 4, 1-[5-(5-Chloro-thiophen-2-yl)-isoxazol-3-ylmethyl]-1H-benzoimidazole-2-carboxylic acid (1-pyrimidin-4-yl-piperidin-4-yl)-amide] | 59.2
20 | COC(=O)c1ccc2c(c1)nc(C(=O)NC1CCN(C(C)C)CC1)n2Cc1cc(-c2ccc(Cl)s2)on1 [Example 5a, 1-[5-(5-Chloro-thiophen-2-yl)-isoxazol-3-ylmethyl]-2-(1-isopropyl-piperidin-4-ylcarbamoyl)-1H-benzoimidazole-5-carboxylic acid methyl ester] | 2.5
21 | CC(C)N1CCC(NC(=O)c2nc3cc(C(=O)OCC(=O)O)ccc3n2Cc2cc(-c3ccc(Cl)s3)on2)CC1 [Example 79, 1-[5-(5-Chloro-thiophen-2-yl)-isoxazol-3-ylmethyl]-2-(1-isopropyl-piperidin-4-ylcarbamoyl)-1H-benzoimidazole-5-carboxylic acid carboxymethyl ester] | 1
22 | CC(C)N1CCC(NC(=O)c2nc3c(C(=O)OCC(=O)O)cccc3n2Cc2cc(-c3ccc(Cl)s3)on2)CC1 [Example 66, 1-[5-(5-Chloro-thiophen-2-yl)-isoxazol-3-ylmethyl]-2-(1-isopropyl-piperidin-4-ylcarbamoyl)-1H-benzoimidazole-4-carboxylic acid carboxymethyl ester] | 3
23 | CC(C)N1CCC(NC(=O)c2nc3cc(C(=O)O)ccc3n2Cc2cc(-c3ccc(Cl)s3)on2)CC1 [Example 6, 1-[5-(5-Chloro-thiophen-2-yl)-isoxazol-3-ylmethyl]-2-(1-isopropyl-piperidin-4-ylcarbamoyl)-1H-benzoimidazole-5-carboxylic acid] | 3
24 | CC(C)N1CCC(NC(=O)c2nc3ccccc3n2Cc2cc(-c3ccc(Cl)s3)on2)CC1 [Example 1, 1-[5-(5-Chloro-thiophen-2-yl)-isoxazol-3-ylmethyl]-1H-benzoimidazole-2-carboxylic acid (1-isopropyl-piperidin-4-yl)-amide] | 0.7
25 | O=C(Nc1ccc(N2CCOC2=O)cc1)c1nc2ccccc2n1Cc1cc(-c2ccc(Cl)s2)on1 [Example 42, 1-[5-(5-Chloro-thiophen-2-yl)-isoxazol-3-ylmethyl]-1H-benzoimidazole-2-carboxylic acid [4-(2-oxo-oxazolidin-3-yl)-phenyl]-amide] | 462
26 | CC(C)N1CCC(NC(=O)c2nc3ccc(C(=O)O)cc3n2Cc2cc(-c3ccc(Cl)s3)on2)CC1 [Example 7, 3-[5-(5-Chloro-thiophen-2-yl)-isoxazol-3-ylmethyl]-2-(1-isopropyl-piperidin-4-ylcarbamoyl)-3H-benzoimidazole-5-carboxylic acid] | 16.5
27 | CC(C)N1CCC(NC(=O)c2nc3c(C(=O)O)cccc3n2Cc2cc(-c3ccc(Cl)s3)on2)CC1 [Example 12, 1-[5-(5-Chloro-thiophen-2-yl)-isoxazol-3-ylmethyl]-2-(1-isopropyl-piperidin-4-ylcarbamoyl)-1H-benzoimidazole-4-carboxylic acid] | 3
